A melting point compilation (Tetko et al.; mined from patent text by program, amines drawn as free bases though some values may be those of a salt)

Structure (SMILES)	melting point [°C]
CC(C)(C)COc1cccc(C[C@H](N)[C@H](O)c2cccc(Cl)c2)c1 (racemic)	115 to 116
NC(=O)c1nnn(Cc2ccc(C(=O)c3ccc(Cl)cc3)c(Cl)c2)c1N	203 to 205
CC(=O)c1ccc(-n2sc3ccccc3c2=O)cc1	183 to 185
Oc1ccc(N2CCN(c3nc4ccccc4o3)CC2)cc1	161 to 163
CCC(=O)c1ccc(OC(C)(C)C(=O)OC)cc1	47 to 49
Nc1nc(/C(=N/OCC(=O)OC(c2ccccc2)c2ccccc2)C(=O)O)cs1	125
CCCc1c(C(=O)C(C)C)c2ccc(C(N)=O)cc2n1Cc1ccc(Cl)cc1F	200 to 202
O=C1CC2(CCCC2)CC(=O)N1CCCCN1CCN(c2nsc3ccccc23)CC1	128 to 130
COc1ccc2c(c1)C(C(Cl)(Cl)Cl)OC(C(Cl)(Cl)Cl)O2 (stereo not given)	105 to 107
Cc1ccccc1-n1c(C=Cc2ccccc2F)nc2nccnc2c1=O	> 250
CCOC(=O)c1cn(-c2cc([N+](=O)[O-])c(F)cc2F)c2cc(F)c(F)cc2c1=O	165 to 173
CCOCn1c(C(=O)c2ccccc2)c(CC)c(=O)[nH]c1=O	133 to 134
COc1ccc2c(=O)cc(-c3nc4ccccc4[nH]3)oc2c1	201 to 203
COC(=O)c1cc2c(nc1C1=NC(C)(C(C)C)C(=O)N1)CCOC2 (stereo not given)	208 to 220
Oc1cc(-c2ccccc2)cc(-c2ccccc2)c1	97
O=c1[nH]c(-c2ccccn2)nnc1-c1ccc(Cl)cc1	216 to 217
CCC=CCC=CCC=CCCCCCCCC(=O)OCC(COC(=O)CCCCCCCC=CCC=CCC=CCC)OCn1cnc2c(=O)[nH]c(N)nc21 (stereo not given)	242 to 243
CCc1cc(NC(=O)N2CCN(c3cc(OC)cc(OC)c3)CC2)c(N2CCNCC2)nc1C	68 to 70
Cn1c(-c2ccc(-c3cncs3)cc2)cnc1[C@H](Cc1ccccn1)N(C=O)c1cc2cc(Cl)ccc2o1	165 to 167
COc1cc(Nc2c(C#N)cnc3cc(-c4ccc(CN(C)C)cc4)ccc23)c(Cl)cc1Cl	187 to 189
CNC(=O)COc1cc(C(F)(F)F)cc(C(F)(F)F)c1	98 to 99
NC1=NC(c2ccccc2)=NCC1(N)N=O (stereo not given)	243 to 244
O=C(O)CCCCOc1cccc2occc12	108
NCC1CCN(c2nccc(C(N)=O)n2)CC1	144 to 148
COc1cccc(Nc2nc(N)nc3c2-c2ccccc2C3)c1	187

Structure (SMILES)	melting point [°C]
COc1ccc(CCN(C)CCCC(C)(C(=O)OC(C)C)c2ccc(OC)c(OC)c2)cc1OC (stereo not given)	85 to 87
O=C(O)COc1cc(F)c(-c2ccccc2)cc1C(=S)NCc1cccc([N+](=O)[O-])c1	177 to 179
Cc1cc(F)ccc1NC(=O)CCC#Cc1ccccn1	110 to 114
CNC(=O)[C@@H]1C[C@@H](OCc2ccccc2)CN1S(=O)(=O)c1ccc(Cl)c(CBr)c1Cl	62 to 64
CS(=O)(=O)Nc1cc(F)cc(F)c1	121
COc1nc(C)cnc1N(C(=O)OCC(C)C)S(=O)(=O)c1cccnc1-c1ccc(I)cc1	156 to 158
O=C(OCC(=O)N1CCCCC1)c1ccc(O)cc1	160 to 164
CCC(=O)C1=C(O)CC(c2cc3ccccc3cc2C)CC1=O (stereo not given)	118
O=C1OC(c2ccccc2)CN1Sc1ccc(Cl)cc1 (stereo not given)	98 to 99
O=C(CCC12CCC(=O)N1C(=O)CC2)OCc1ccccc1Cl	126 to 128
CNC(=O)Cn1c(-c2ccc(F)cc2)nc2cccnc21	215 to 217
O=C(CCl)N[C@@H]1CCCC[C@H]1NC(=O)CCl (relative stereo)	202 to 203
CCOc1ccc2nc(CO)n(C)c2n1	161
CC(C)(C)C(=O)C(Br)Oc1ccc(Cl)cc1Cl (stereo not given)	70
CC(C)c1cc(NC(=O)C(CS)Cc2ccccc2)cc(C(=O)O)c1 (stereo not given)	205 to 209
CC(C)C(C)(C)N1N=C([O-])O[NH2+]1	38
CCOC(=O)CCc1cn(-c2ccc(Br)cn2)nc1C(C)(C)C	94 to 95
CCOC(=O)C1=C(COCc2nnn(CCNc3cc(Cl)ncn3)n2)NC(C)=C(C(=O)OC)C1c1cccc(Cl)c1Cl (stereo not given)	160 to 162
O=[N+]([O-])c1c(NCCCO)cccc1NCCCO	90
C[C@@H]1C[C@H](C)CN(S(=O)(=O)c2ccc(Cl)c(C(=O)NCCCC(=O)O)c2)C1	193 to 195
CSC(=O)C(=O)c1nsc(NC=O)n1	186 to 187
N#Cc1ccc(C2NC(=O)Cc3ccccc32)cc1 (stereo not given)	165 to 168
NC(=O)c1cc(N(Cc2c(F)c(F)c(C(F)(F)F)c(F)c2F)C(=O)C(F)(F)F)ccc1OC(=O)C(F)(F)F	179 to 180
Cc1ccccc1CN(CC(=O)OC(C)(C)C)S(=O)(=O)c1ccc2c(Cl)cnc(Cl)c2c1	96 to 98
CC1CN(c2c(F)cc3c(=O)c(C(=O)O)cn(CCF)c3c2F)CC1CN (stereo not given)	228 to 232
